Reference: the supplement of paper PMC10307832

Tests used:
Test in all cases: relative viability (nuclei count vs DMSO), 5 days (fraction); higher = more cells survive
[1] = compound: Cn1cc(-c2cnc3ccc4ccc(CS(=O)(=O)NCc5ccccn5)cc4c(=O)c3c2)cn1 [MK-8033] + C[C@@H](Oc1cc(-c2cnn(C3CCNCC3)c2)cnc1N)c1c(Cl)ccc(F)c1Cl [Crizotinib] (partner 1 µM)
Method in brief: (§1)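 Relative viability was taken as the ratio of nuclei in treated wells to nuclei in vehicle wells. Lung cancer cell lines in 1536-well plates received compounds by pin tool one day after seeding, either one drug alone or a fixed anchor-drug dose plus five library-drug doses (not always all listed) in √10 steps. Nuclei were counted on 4× images after 5 days of treatment, and values are medians of duplicate plates.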

[2] = compound: Cn1cc(-c2cnc3ccc4ccc(CS(=O)(=O)NCc5ccccn5)cc4c(=O)c3c2)cn1 [MK-8033] + COc1cccc2cc(-c3nc([C@H]4CC[C@H](C(=O)O)CC4)n4ncnc(N)c34)[nH]c12 [OSI-027] (partner 0.5 µM)
Method in brief: as §1

[3] = compound: CC[C@@H](C)CNCC(=O)N1CCC2=C([C@@H]1COC3=CC=CC(=C3)C)C=CS2 [RU-SKI 43] + O=C(CCCCCCC(=O)Nc1ccccc1)NO [Vorinostat] (partner 1 µM)
Method in brief: as §1

| Cell Line | relative viability ([1]; first compound 0.02 µM) | relative viability ([1]; first compound 0.2 µM) | relative viability ([1]; first compound 0.6325 µM) | relative viability ([1]; first compound 2 µM) | relative viability ([2]; first compound 0.02 µM) | relative viability ([2]; first compound 0.06325 µM) | relative viability ([2]; first compound 0.2 µM) | relative viability ([2]; first compound 0.6325 µM) | relative viability ([2]; first compound 2 µM) | relative viability ([3]; first compound 0.1 µM) | relative viability ([3]; first compound 0.3162 µM) | relative viability ([3]; first compound 1 µM) | relative viability ([3]; first compound 3.162 µM) | relative viability ([3]; first compound 10 µM) | relative viability ([1]; first compound 0.06325 µM) |
| --- | --- | --- | --- | --- | --- | --- | --- | --- | --- | --- | --- | --- | --- | --- | --- |
| PC-3 [JPC-3] | 0.963 | 0.902 | 0.981 | 0.936 | 0.78 | 0.647 | 0.646 | 0.776 | 0.692 | 0.947 | 0.727 | 0.982 | 0.651 | 0.876 | – |
| NCI-H1355 | 1.07 | 1.03 | 1.05 | 1.02 | 0.366 | 0.296 | 0.404 | 0.423 | 0.411 | 0.725 | 0.704 | 0.645 | 0.701 | 0.615 | 0.988 |
| NCI-H460 | 0.949 | 0.879 | 0.822 | 0.844 | 0.643 | 0.627 | 0.547 | 0.686 | 0.472 | 0.81 | 1.3 | 0.787 | 0.75 | 0.565 | 0.793 |
| NCI-H2228 | 0.373 | 0.508 | 0.387 | 0.362 | 0.692 | 0.562 | 0.576 | 0.559 | 0.552 | 0.603 | 0.928 | 0.828 | 0.727 | 0.596 | 0.372 |
| LCLC-103H | 1.02 | 0.99 | 1.06 | 1.04 | 0.412 | 0.469 | 0.437 | 0.448 | 0.509 | 0.804 | 0.821 | 0.855 | 0.781 | 0.729 | 0.926 |
| SK-LU-1 | 0.873 | 0.8 | 0.835 | 1.02 | 0.347 | 0.352 | 0.315 | 0.4 | 0.371 | 0.738 | 0.893 | 0.882 | 0.795 | 0.775 | 0.874 |
| 201T | 1.07 | 1.03 | 0.874 | 1.03 | 0.767 | 0.703 | 0.683 | 0.675 | 0.817 | 0.968 | 1.17 | 1.09 | 1.06 | 0.957 | 0.991 |
| NCI-H441 | 0.753 | 0.681 | 0.778 | 0.691 | 0.653 | 0.597 | 0.698 | 0.788 | 0.469 | 0.752 | 0.97 | 0.97 | 0.741 | 0.849 | 0.646 |
| ChaGo-K-1 | 1.11 | 1.11 | 1.1 | 0.726 | 0.51 | 0.536 | 0.528 | 0.552 | 0.511 | 0.759 | 0.731 | 0.853 | 0.77 | 0.762 | 1.02 |
